For data set [1] the following is noted: all dose levels up to 240 mg; cited from earlier work. An excerpt: While mounting evidence points to a role of bitter taste receptors in cancer epithelial cells and in Tuft cells, this report, is to our knowledge, the first indication that TAS2R9 is expressed on CAFs. The fact that TAS2R9 is overexpressed in 7.33% of human PDAC tissue, and that its expression in pancreatic CAFs is 57-fold higher than in the human dermal fibroblast raises the interesting question of what role TAS2R9 may play in CAFs. In particular, the revelation that TAS2R9 mRNA expression ...

The test system of a further data set is Ki67. Description: Ki67 staining of tumor sections (cell proliferation). The format is in vivo, mouse (athymic nude). The note with it: ImageJ; p < 0.01. Here is the method:
Tumor sections were blocked for 1 h in blocking buffer, and incubated with FITC-conjugated anti-CD31 (BD biosciences, 1:100, 20 min) then anti-rat secondary (1:250, 20 min), or anti-Ki67 (Abcam, 1:250, 20 min) then anti-rabbit secondary (1:250, 20 min). Images were collected using ZEISS LSM-880 Confocal Laser Scanning Microscope (Carl Zeiss Meditec, Inc., Jena, Germany). Mander’s correlation coefficients were determined using the JACoP plugin in ImageJ (National Institute of Health, Bethesda, MD, USA) for the colocalization analysis. To characterize CD31 and Ki67 expression, the area fraction of the positive pixels was measured for each image using the Measurement Tool in ImageJ. Section averages were entered into Prism to find overall means for each treatment group and tested for statistical significance between groups using the Student’s t-test.
The drug dosage was calculated for each treatment to achieve the same weekly amount of Sb225002 given per animal. Tumor volume was measured with calipers twice weekly until day 19, at which time the tumors were harvested for cell proliferation (Ki67) and angiogenesis (CD31) analysis, and CXCR2 IHC staining.

Another data set has as its system KPC mice. The note with it: cited from earlier work. An excerpt: CXCR2 antagonists have been explored in non-cancer lung diseases (e.g., NCT01255592, NCT01006616) and in certain cancers such as castration-resistant prostate cancer (NCT03177187) and squamous cell carcinoma of the head and neck (NCT02499328).
The test system of a further data set is CXCR2. The note with it: cited from earlier work. An excerpt:
To further evaluate pharmacodynamics, we characterized CXCR2 inhibition as a surrogate for the delivery of SB225002. Tumors from all groups were fixed and paraffin embedded for immunohistochemistry staining. […] Furthermore, the inhibition of angiogenesis has been cited as a contributing factor to th ...

The test system of data set [2] is recombinant human TAS2R9 (rhTAS2R9). Briefly: Phage ELISA on recombinant human TAS2R9 (in-proteo ELISA). The data set is classed as binding. The note with it: 4 × 10^9 pfu phage; absorbance 650 nm, 35 min after TMB; normalized to M13KE; 1 h RT; n = 3, p < 0.05. The procedure:
Thus, we hypothesized that their binding partners could serve as potential cellular markers and therapeutic targets for CAFs. Using a phage display-based functional proteomics approach, wild-type (WT) M13KE phage or phage displaying CAF selective peptides (phHTTIPKV and phAPPIMSV) were incubated with PDAC patient-derived CAFs allowing the phage to serve as “bait.” Phage were chemically modified to crosslink to their cell surface binding partner, then phage pull-down samples were resolved via SDS-PAGE. […] In-proteo ELISA experiments were performed to evaluate the specific binding of phHTTIPKV to recombinant human TAS2R9 (rhTAS2R9). Phage displaying KTLLPTP (phKTLLPTP), a PDAC epithelial cell-specific peptide, served as a negative control. […]
Figure 1 TAS2R9 expression in CAFs isolated from human PDAC. […] (B) 4 × 10^9 pfu phHTTIPKV and a PDAC specific phage, phKTLLPTP, were applied to rhTAS2R9 to determine the absorbance of phage binding to rhTAS2R9 at 650 nm. The absorbance of both phage were normalized to the absorbance detected from rhTAS2R9 bound to the wild-type M13Ke phage. n = 3, * p < 0.05. […]
About 100 μL of 0.1 μg/mL rhTAS2R9 (Novus Biological, Littleton, CO, USA) was plated in 96-well plates overnight at 4 °C. […] The absorbance was measured on a microplate reader at 650 nm at 35 min post addition of TMB

Data set [3] concerns CAFs isolated from the stroma of PDAC patients. The note with it: cited from earlier work; for Specificity and selectivity for CAFs: CAFs isolated from the stroma of PDAC patients.
The test system of data set [4] is PDAC patient-derived CAFs (TAS2R9). Description: Phage display-based pulldown from PDAC patient-derived CAFs with MS/MS identification. The data set is classed as binding, human. The note with it: SDS-PAGE, compared with WT M13KE phage and phAPPIMSV. The procedure:
Thus, we hypothesized that their binding partners could serve as potential cellular markers and therapeutic targets for CAFs. Using a phage display-based functional proteomics approach, wild-type (WT) M13KE phage or phage displaying CAF selective peptides (phHTTIPKV and phAPPIMSV) were incubated with PDAC patient-derived CAFs allowing the phage to serve as “bait.” Phage were chemically modified to crosslink to their cell surface binding partner, then phage pull-down samples were resolved via SDS-PAGE. […] In-proteo ELISA experiments were performed to evaluate the specific binding of phHTTIPKV to recombinant human TAS2R9 (rhTAS2R9). Phage displaying KTLLPTP (phKTLLPTP), a PDAC epithelial cell-specific peptide, served as a negative control. […] Therefore, we pursued validation of TAS2R9 as HTTIPKV’s target and as a novel CAF-selective cell surface marker.
Figure 1 TAS2R9 expression in CAFs isolated from human PDAC. (A) Phage pulldowns from PDAC patient-derived CAFs by the M13Ke (lane 1) and CAF-specific phages, phAPPIMSV and phHTTIPKV (lane 2 and 3). […] (B) 4 × 10^9 pfu phHTTIPKV and a PDAC specific phage, phKTLLPTP, were applied to rhTAS2R9 to determine the absorbance of phage binding to rhTAS2R9 at 650 nm. The absorbance of both phage were normalized to the absorbance detected from rhTAS2R9 bound to the wild-type M13Ke phage. n = 3, * p < 0.05. […]

For data set [5], the target named is T1, recombinant human TAS2R9 (rhTAS2R9) (human) (UniProt Q9NYW1).
T1 sequence (Q9NYW1 whole entry, looked up): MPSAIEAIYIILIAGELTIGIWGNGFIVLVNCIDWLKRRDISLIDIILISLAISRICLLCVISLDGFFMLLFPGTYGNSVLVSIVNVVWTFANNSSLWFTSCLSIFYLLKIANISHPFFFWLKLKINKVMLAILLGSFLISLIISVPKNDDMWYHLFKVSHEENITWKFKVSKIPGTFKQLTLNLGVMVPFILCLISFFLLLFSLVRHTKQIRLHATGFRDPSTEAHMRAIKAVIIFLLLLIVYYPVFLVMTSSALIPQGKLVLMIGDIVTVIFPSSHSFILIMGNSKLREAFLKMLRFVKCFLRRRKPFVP
Description: ELISA; 0.1 ug/mL rhTAS2R9 coated on 96-well plates overnight at 4 °C, 5% milk block, 40 uL phage at 1 x 10^8 pfu/uL for 1 h at room temperature, HRP anti-M13 antibody, absorbance at 650 nm; normalised to wild-type M13KE phage.

In the case of `CC(=O)[O-].CC[N+](CC)(CC(=O)Nc1c(C)cccc1C)Cc1ccccc1` [pan-TAS2R agonist, Denatonium Acetate], the “Tolerability in phase one clinical trial” value in data set [1] was “well tolerated at all dose levels up to 240 mg”.
For `O=C(Nc1ccc([N+](=O)[O-])cc1O)Nc1ccccc1Br` [SB225002], in the data set on Ki67, the “Ki67+ area fraction (cell proliferation)” value is “significant reduction in Ki67+ area fraction”. In addition, the “Survival of KPC mice” value with KPC mice is listed as “profoundly prolong survival in KPC mice”. Moreover, the “Contribution to anti-tumor effects: angiogenesis” value in the data set on CXCR2 is on record as “inhibition of angiogenesis has been cited as a contributing factor to the anti-tumor effects”.
As to HTTIPKV [phHTTIPKV], the “Increase in specific binding to rhTAS2R9 compared to phKTLLPTP” value in data set [2] worked out at 2.72 fold.
Turning to APPIMSV, the “Specificity and selectivity for CAFs” value in data set [3] is “high specificity and selectivity for CAFs”.
As for HTTIPKV, the “Unique band in phage pulldown” value in data set [4] was “presence of a unique band”. In data set [3], the “Specificity and selectivity for CAFs” value was “high specificity and selectivity for CAFs”. In addition, in data set [3] (signature database of 56 cell lines and tissues), the “Selectivity for CAFs in vitro and in vivo” value is “selective for CAFs across in vitro and in vivo experiments”.
Regarding HTTIPKV [phage displaying HTTIPKV (phHTTIPKV)], in data set [5], the fold specific binding against phKTLLPTP (each normalised to M13KE phage) stood at 2.72 fold.

Values taken from publication PMC10058050, “A Bitter Taste Receptor as a Novel Molecular Target on Cancer-Associated Fibroblasts in Pancreatic Ductal Adenocarcinoma” (Pharmaceuticals, 2023).
